From paper PMC5681660, “Reduced hepatitis B and D viral entry using clinically applied drugs as novel inhibitors of the bile acid transporter NTCP” (Scientific Reports, 2017)
Entries after “also recorded” stand apart in the source; their conditions may differ. Read-outs that look alike come from different tables or passages of the source.

Assays:
[1] = molecular target: T1, human NTCP (Homo sapiens, UniProt Q14973); test: Taurocholate uptake inhibition studies in U2OS-HA-hNTCP cells; format: cell-based; set-up: HA; expressed in transfected cells; settings: for concentration at which NTCP was inhibited in repeated measurements of TC-uptake and Myrcludex B binding / IC50: U2OS-HA-hNTCP cells; for concentration at which NTCP was inhibited in repeated measurements of TC-uptake and Myrcludex B binding: both TC uptake and Myrcludex B binding; for IC50: concentrations 1 nM to 10 mM, read-out: IC50 for hNTCP-mediated TC uptake; for Taurocholate uptake into U2OS-HA-hNTCP cells (in words): increasing drug concentrations
T1 sequence (Q14973 1-349): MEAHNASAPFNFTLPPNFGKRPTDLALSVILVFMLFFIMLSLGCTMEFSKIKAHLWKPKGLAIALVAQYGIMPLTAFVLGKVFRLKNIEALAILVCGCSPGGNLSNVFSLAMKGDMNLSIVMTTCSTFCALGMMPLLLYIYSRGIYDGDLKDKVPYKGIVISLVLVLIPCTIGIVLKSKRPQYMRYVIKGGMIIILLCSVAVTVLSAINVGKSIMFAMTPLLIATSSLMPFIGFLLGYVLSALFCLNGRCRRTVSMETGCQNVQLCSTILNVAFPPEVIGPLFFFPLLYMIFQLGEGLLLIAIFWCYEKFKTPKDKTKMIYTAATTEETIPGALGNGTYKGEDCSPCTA
Experimental: (§1) For MDCK or MDCK-hASBT cells 70.000 cells/well were plated in 24-well plates, followed by 24 hours 10 mM sodium butyrate (Sigma-Aldrich) stimulation the next day. Cells were used in the inhibition studies 24 hours (U2OS cell lines) or 48 hours (MDCK cell lines) later. Inhibition studies with mNTCP transiently transfected cells were conducted 48–72 hours after transfection.
(§2) Medium was aspirated from the wells and cells were washed once with 250 µL uptake buffer. Subsequently, cells were pre-incubated with drug in 150 µL uptake buffer for 10 minutes at 37 °C. Taurocholate uptake was initiated by addition of 100 µL uptake buffer containing taurocholate (final concentration 10 µM TC spiked with tritium-labeled TC) and cells were incubated for 2 minutes at 37 °C. Subsequently, cells were washed 4 times with ice-cold PBS and lysed with 0.05% SDS in water. Radioactivity was measured by liquid scintillation counting.

[2] = system: U2OS-HA-hNTCP cells; settings: 2 hours
[3] = molecular target: T2, human ASBT (Homo sapiens, UniProt Q12908); test: Taurocholate uptake in MDCK-hASBT cells; format: cell-based; settings: compared with NTCP
T2 construct: expressed in transfected cells; gift of Paul Dawson; induced with sodium butyrate
T2 sequence (Q12908 1-348): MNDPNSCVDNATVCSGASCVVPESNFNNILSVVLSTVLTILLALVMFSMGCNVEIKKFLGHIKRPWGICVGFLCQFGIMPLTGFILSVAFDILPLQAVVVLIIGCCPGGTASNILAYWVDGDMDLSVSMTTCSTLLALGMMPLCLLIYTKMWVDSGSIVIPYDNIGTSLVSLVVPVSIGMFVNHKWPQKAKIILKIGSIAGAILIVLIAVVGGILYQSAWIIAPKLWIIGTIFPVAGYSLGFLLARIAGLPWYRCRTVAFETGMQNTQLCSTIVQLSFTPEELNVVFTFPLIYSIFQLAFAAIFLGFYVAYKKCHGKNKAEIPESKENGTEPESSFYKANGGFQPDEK
Experimental: (§3) U2OS and MDCK cells were grown in Dulbecco’s modified Eagle’s medium (DMEM, Sigma-Aldrich), supplemented with 10% FCS (Gibco), 1% L-glutamine (Lonza), and 1% penicillin/streptomycin (Lonza). […] Transient transfection of U2OS cells with mouse NTCP (mNTCP) was done with PEI reagent (Brunschwig, Basel, Switzerland). Shortly, U2OS cells were seeded one day prior to transfection in 24-well plates. On the day of transfection, 0.5 µg DNA was mixed with 100 µl unsupplemented DMEM and 3 µg/µl PEI. After 10–15 minute incubation at RT, 20 µl of the transfection mix was added to each 24-well. Transfected cells were used in further experiments 48–72 hours later. Cell lines were passaged twice a week at a confluence of 80%, and incubated in a humidified atmosphere of 37 °C + 5% CO2.
as §1, §2

[4] = system: HBV; settings: for HBV infection in HepaRG cells (in words): HBeAg, HBsAg, HBcAg, concentration-dependent; for concentration effective in reducing HBeAg and HBsAg production: HepaRG cells infected with HBV, supernatant day 7 to 10; for number of HBcAg positive stained cells: HepaRG cells, day 10 post HBV infection, 50 µM
[5] = system: HDV; test: HDV infection of HepaRG cells (HDAg immunofluorescence); format: cell-based, hepatitis delta virus; settings: HDAg positive cells, day 5; concentration-dependent
[6] = system: U2OS cells; test: WST-1 cytotoxicity, wildtype U2OS cells; settings: U2OS cells, 2 hours
[7] = molecular target: T1, human NTCP; test: Screening taurocholate uptake assay (96-well, [14C]taurocholate, 10 µM drug); settings: for Ranking score: ranking over the functional and the binding screening assay; for B-score functional assay: screening taurocholate uptake, 10 µM drug
[8] = molecular target: T1, human NTCP; test: Myrcludex B-FITC binding by confocal microscopy in U2OS-HA-hNTCP cells; set-up: HA; expressed in transfected cells; settings: for Myrcludex B-FITC fluorescence / binding to U2OS-HA-hNTCP cells (in words): co-administration with increasing amounts of drug; for ≥50% loss of Myrcludex B binding to hNTCP (concentration): confocal microscopy, 0.2 µM Myrcludex B-FITC, drug 1, 10, 100 µM, concentration at which binding inhibited minimally 50%
Experimental: After 24 hours, medium was aspirated and cells were washed once with 300 µl Leibovitz’s L-15 Medium (Invitrogen). A 30 minute incubation period followed in which all cells were incubated with 0.2 µM Myrcludex B-FITC with or without drug (1, 10, 100 µM) and Hoechst (1/1000) in 300 µL Leibovitz’s L-15 Medium. Cells were washed twice with Leibovitz’s L-15 Medium and subsequently 400 µL Leibovitz’s L-15 Medium was added. Live cell fluorescent imaging was performed using a Leica SP8X-SMD confocal microscope with fully enclosed incubation at 37 °C. A 63x oil objective was used and images were captured while the cells were consecutively excited at 490 nm (FITC) 350 nm (Hoechst). ImageJ software (National Insititutes of Health, Bethesda, MD) was employed for data analysis.

[9] = molecular target: T3, mouse NTCP (Mus musculus, UniProt O08705); test: Taurocholate uptake in U2OS cells transiently transfected with mouse NTCP; format: cell-based; settings: at the calculated IC50 value for hNTCP
T3 construct: expressed in transfected cells; host or cells: U2OS (transient transfection, PEI)
T3 sequence (O08705 1-362): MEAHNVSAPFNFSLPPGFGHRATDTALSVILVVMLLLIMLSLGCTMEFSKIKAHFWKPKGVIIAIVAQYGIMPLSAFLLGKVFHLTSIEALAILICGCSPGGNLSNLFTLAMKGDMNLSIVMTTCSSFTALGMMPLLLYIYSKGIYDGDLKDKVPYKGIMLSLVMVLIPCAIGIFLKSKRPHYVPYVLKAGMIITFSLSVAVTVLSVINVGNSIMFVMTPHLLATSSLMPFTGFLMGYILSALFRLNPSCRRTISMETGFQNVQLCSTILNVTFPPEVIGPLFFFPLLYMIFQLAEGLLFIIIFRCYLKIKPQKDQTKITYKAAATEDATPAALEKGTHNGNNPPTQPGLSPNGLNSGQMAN
Experimental: as §3, §1, §2

[10] = WST-1 cytotoxicity, wildtype U2OS cells; settings: human
[11] = in vitro; settings: human, U2OS-HA-hNTCP cells
[12] = molecular target: T1, human NTCP; test: Sodium dependent tauro-ursodeoxycholic acid uptake into U2OS-HA-hNTCP cells; format: cell-based; set-up: HA; expressed in transfected cells
Experimental: Figure 4 Myrcludex B inhibits uptake of tauro-ursodeoxycholic acid. Sodium dependent tauro-ursodeoxycholic acid uptake into U2OS-HA-hNTCP cells was reduced in the presence of Myrcludex B. N = 6 wells/condition, data are depicted as mean ± SD.
Buffers were set to pH 7.4, at room temperature. After washing, cells were pre-incubated for 10 minutes with drugs in 50 µL uptake buffer. […] After incubation, buffer was removed and cells were washed 2x with ice-cold PBS. Cells were lysed for a minimum of 30 minutes in 30 µL/well 0.05% SDS in water. When lysis was complete, 120 µL MicroScint™-20 (PerkinElmer) was added to the wells and radioactivity was measured by liquid scintillation counting.

[13] = system: HBV; settings: primary human hepatocytes, cited from earlier work
[14] = system: HBV; test: HBV infection of primary human hepatocytes (literature); format: cell-based, hepatitis B virus
[15] = system: HDV RNA and HBV DNA serum levels; settings: chronic hepatitis delta patients, 24 weeks; cited from earlier work

Compound | concentration at which NTCP was inhibited in repeated measurements of TC-uptake and Myrcludex B binding [1] [µM] | IC50 [1] [µM] | Taurocholate uptake into U2OS-HA-hNTCP cells (in words) [1] | inhibition of ASBT-mediated taurocholate uptake [3] | HBV infection in HepaRG cells (in words) [4] | concentration effective in reducing HBeAg and HBsAg production [4] [µM] | number of HBcAg positive stained cells [4] | HDV infection in HepaRG cells (in words) [5] | Ranking score [7] | B-score functional assay [7] | Myrcludex B-FITC fluorescence / binding to U2OS-HA-hNTCP cells (in words) [8] | ≥50% loss of Myrcludex B binding to hNTCP (concentration) [8] [µM] | inhibition of mouse Ntcp-mediated taurocholate uptake compared with human NTCP [9] | other results
COc1cc(-c2ccc(N=Nc3ccc4c(S(=O)(=O)[O-])cc(S(=O)(=O)[O-])c(N)c4c3O)c(OC)c2)ccc1N=Nc1ccc2c(S(=O)(=O)[O-])cc(S(=O)(=O)[O-])c(N)c2c1O.[Na+].[Na+].[Na+].[Na+] [Chicago Sky Blue 6B] | ≤ 10 | 7.1 | reduced | inhibited ASBT to a similar extent as NTCP; also recorded: inhibit ASBT in a concentration-dependent fashion | reduced HBV/HDV infection | 17 | severely reduced | reduced HBV/HDV infection | 17.4642 | -3.126 | reduced | ≥1 | more capable of inhibiting mouse Ntcp; also recorded: more potent in inhibiting mouse NTCP | cell viability by WST-1 ([2]; 1 µM): 87.8 ± 7.2%; cell viability by WST-1 ([2]; 10 µM): 95.8 ± 5.9%; cell viability by WST-1 ([2]; 100 µM): 110.9 ± 9.4%; cell viability by WST-1 ([6]; 1 µM): 91.0 ± 9.3%; cell viability by WST-1 ([6]; 10 µM): 93.9 ± 5.4%; cell viability by WST-1 ([6]; 100 µM): 108.7 ± 5.6%
COc1cc(C(=O)NS(=O)(=O)c2ccccc2C)ccc1Cc1cn(C)c2ccc(NC(=O)OC3CCCC3)cc12 [Zafirlukast] | ≤ 10 | 6.5 | reduced | inhibited ASBT less effectively and at higher concentrations than observed for NTCP; also recorded: inhibit ASBT in a concentration-dependent fashion | reduced HBV/HDV infection; also recorded: reduce | 17 | severely reduced | reduced HBV/HDV infection; also recorded: reduce | 4.472 | -7.741 | reduced Myrcludex B-FITC fluorescence | ≥1 | inhibited similarly as human NTCP | viability at 1 µM [10]: 87.7 ± 4.8%; viability at 10 µM [10]: 94.1 ± 2.7%; viability at 100 µM [10]: 73 ± 5.8%; viability at 2 h, 1 µM [11]: 94.7 ± 12.7%; viability at 2 h, 10 µM [11]: 87.1 ± 12.3%; viability at 2 h, 100 µM [11]: 77.7 ± 8%; decreased Myrcludex B binding ([8]; at 10 µM): more than 50%
Myrcludex B | – | – | – | – | – | – | – | – | – | – | – | – | – | sodium-dependent uptake of tauro-ursodeoxycholic acid [12]: largely inhibited; also recorded: reduced; IC50 ([13]; read-out: concentration inhibiting HBV infection, HBeAg): 0.083 nM; IC50 ([13]; read-out: concentration inhibiting HBV infection, HBsAg): 0.669 nM; fold lower concentration for blocking HBV infection than IC50 for bile acid transport [14]: at least 50 fold; HDV RNA and HBV DNA serum levels [15]: Largely reduced
